Read-outs that look alike come from different tables or passages of the source.
Columns and labels:
G6PD [1] = molecular target: T1, G6PD (Homo sapiens, UniProt P11413); test: 6-pg levels in HepG2 cells (cellular target engagement); format: cell-based; design: endogenous in cells; details: for dose-dependent decrease in 6-pg levels: dose-response
Description: Direct Monitoring of 6-pg in cells. The metabolite 6-phosphogluconate (6-pg) is a downstream product of the G6PD reaction, and is believed to be made predominantly by the oxidative pentose phosphate pathway in mammalian cells. Though the direct product of G6PD is the lactone form of 6-pg (6-phosphogluconolactone), this product is believed to readily hydrolyze to 6-pg under cellular conditions, and is therefore difficult to detect. Thus, to directly monitor the G6PD reaction, methods for measuring 6-pg levels in intact cells were developed.
To explore this possibility further, more specific assays for evaluating G6PD cellular target engagement were developed. […] These included the hepatocellular carcinoma line, HepG2, which was selected as the primary cell for direct 6-pg monitoring. Consistent with the oxPPP being the primary source of 6-pg in these cells, G6PD knockout led to nearly complete 6-pg loss (FIGS. 1B and 1C).
(§1) For analysis of intracellular metabolites by LC-MS, adherent cell lines were plated and grown to 80% confluency in 6-well plates. At the start of an experiment, the appropriate media was added to cells, which included isotope tracers and/or chemical inhibitors as described. Cells were incubated at 37° C. at 5% CO2 for 2 hours (unless otherwise noted). For all experiments involving small molecule agents, DMSO concentrations were <0.2%. After 2 hours, media was removed by aspiration and metabolome extraction was performed (without any wash steps) by the addition of 800 µL of ice cold solvent (40:40:20 acetonitrile:methanol:water + 0.5% formic acid). After a 1-minute incubation on ice, the extract was neutralized by the addition of NH4HCO3 (15% w/v). The samples were incubated at -20° C. for approximately 30 minutes, at which point the wells were scraped and the extract transferred to Eppendorf tubes and centrifuged (15 minutes, 16000 rpm, 4° C.). The resulting supernatant was frozen on dry ice and kept at -80° C. until LC-MS analysis.
Metabolites were analyzed using a quadrupole-orbitrap mass spectrometer (Q Exactive Plus, Thermo Fisher Scientific, Waltham, MA), coupled to hydrophilic interaction chromatography (HILIC) with LC separation on a XBridge BEH Amide column (Waters), or a stand-alone orbitrap (Thermo-Fisher Exactive) coupled to reversed-phase ion-pairing chromatography with LC separation on a HSS-T3 column (Waters). Both mass spectrometers were operating in negative ion mode and were coupled to their respective liquid chromatography methods via electrospray-ionization. Detailed analytical conditions have been previously described.
Target sequence in this assay (P11413 whole entry): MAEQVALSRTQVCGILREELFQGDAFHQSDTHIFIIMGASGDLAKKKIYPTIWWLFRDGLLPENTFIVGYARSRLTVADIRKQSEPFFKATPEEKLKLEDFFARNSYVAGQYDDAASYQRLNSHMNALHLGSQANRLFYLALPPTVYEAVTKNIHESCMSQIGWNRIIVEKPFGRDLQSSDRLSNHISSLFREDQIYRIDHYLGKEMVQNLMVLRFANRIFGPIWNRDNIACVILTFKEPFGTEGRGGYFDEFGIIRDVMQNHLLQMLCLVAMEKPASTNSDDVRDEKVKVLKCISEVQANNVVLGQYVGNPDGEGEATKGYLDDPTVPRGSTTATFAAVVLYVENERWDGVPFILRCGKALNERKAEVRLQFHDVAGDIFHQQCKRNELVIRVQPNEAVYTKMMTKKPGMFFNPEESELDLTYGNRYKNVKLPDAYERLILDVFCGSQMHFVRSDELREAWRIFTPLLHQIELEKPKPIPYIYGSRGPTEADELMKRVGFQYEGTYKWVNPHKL

G6PD [2] = molecular target: T1, G6PD; test: 2H transfer from 1-2H-glucose to NADPH active hydride and C16:0 in HCT116 cells; format: cell-based; design: endogenous in cells; host or cells: HCT116; details: for dose-dependent decrease in 2H transfer from 1-2H-glucose to NADPH's active hydride: HCT116 cells, dose-response
Description: Direct Monitoring of NADPH Produced by the G6PD Reaction. […] NADPH production is compartmentalized, and occurs through reduction of its redox partner NADP^+. G6PD is one of the main enzymes that generates NADPH, and catalyzes the transfer of electrons (in the form of hydride) from glucose-6-phosphate to NADP^+. By installing a deuterium at the “one” position of glucose (1-^2H-glucose), the transfer of that deuterium to the active hydride of NADPH via glucose-6-phosphate can be specifically monitored. Also, a major use of cytosolic NADPH is fat synthesis. Transfer of ^2H from glucose via NADPH into free palmitate (C16:0) requires two NADPH per two-carbon unit addition during its synthesis.
Next, G6PD mediated hydride transfer to NADPH was directly monitored. Specifically, transfer of deuterium from 1-^2H-glucose, via glucose-6-phosphate, to the NADPH’s active hydride was monitored (FIG. 1B). […] The impacted step was G6PD, as no change in substrate (G6P) labeling was observed (FIG. 1E). A major use of cytosolic NADPH is fat synthesis. Transfer of ^2H from glucose via NADPH into palmitate (C16:0), which requires two NADPH per 2-carbon unit addition during its synthesis, was quantified (FIG. 1B).
For all experiments involving stable isotope tracers (e.g., 1-^2H-glucose), the isotope tracer nutrient was substituted for unlabeled nutrient at the same concentration normally found in the base media for a given cell type (e.g., DMEM for HCT116, RPMI for T cells, etc.). In addition, dialyzed FBS was used as a supplement in place of FBS.
Cytosolic NADPH sources were traced, and redox active hydride labeling was calculated, using a previously described strategy. 1-^2H-glucose (which directly traces G6PD) or 3-^2H-glucose (which directly traces PGD) were used for tracing oxPPP contribution to NADPH; 4-^2H-glucose for ME1; [2,3,3,4,4-^2H5]-glutamine, for both ME1 and IDH1; and D2O, to account for solvent exchange.
as §1
Target sequence in this assay (P11413 whole entry): as above

G6PD [3] = molecular target: T1, G6PD; test: Cellular thermal shift assay (CETSA) in HepG2 lysates; format: binding; design: endogenous in cells; details: up to 56° C.
Procedure: Lysates from HepG2 cells at 75% confluence were isolated with 0.5% Triton in TBS (20 mM, Tris pH 7.4, 150 mM NaCl) for 30 min on ice, pre-cleared by centrifugation and used for thermal shift assay as described 49. Briefly, inhibitor or DMSO control was added to lysates at indicated concentration and incubated for 30 min on ice followed by 3 min heating at 47° C., 50° C., 53° C., and 56° C. in a thermal cycler. After heating, tubes were cooled at room temperature for 3 min and insoluble fraction removed by centrifugation at 17,000 g for 20 min. The soluble fraction was separated by SDS-PAGE, transferred to PVDF membrane, and immunoblotted using indicated antibodies at a dilution of 1:2000. Blots were developed by chemiluminescence and imaged using LI-COR C-DiGit Western Blot Scanner. Two independent experiments were performed. Signal intensity of proteins from immunoblots was quantified using Image Studio version 5.2 for C-DiGit Scanner, and bands were normalized to signal intensity of the 47° C. treated samples. Relative signal intensities were plotted as bar graph relative to the DMSO treated control.
Target sequence in this assay (P11413 whole entry): as above

G6PD [4] = molecular target: T1, G6PD; test: G6PD enzymatic activity by diaphorase-coupled assay
Target sequence in this assay (P11413 28-515): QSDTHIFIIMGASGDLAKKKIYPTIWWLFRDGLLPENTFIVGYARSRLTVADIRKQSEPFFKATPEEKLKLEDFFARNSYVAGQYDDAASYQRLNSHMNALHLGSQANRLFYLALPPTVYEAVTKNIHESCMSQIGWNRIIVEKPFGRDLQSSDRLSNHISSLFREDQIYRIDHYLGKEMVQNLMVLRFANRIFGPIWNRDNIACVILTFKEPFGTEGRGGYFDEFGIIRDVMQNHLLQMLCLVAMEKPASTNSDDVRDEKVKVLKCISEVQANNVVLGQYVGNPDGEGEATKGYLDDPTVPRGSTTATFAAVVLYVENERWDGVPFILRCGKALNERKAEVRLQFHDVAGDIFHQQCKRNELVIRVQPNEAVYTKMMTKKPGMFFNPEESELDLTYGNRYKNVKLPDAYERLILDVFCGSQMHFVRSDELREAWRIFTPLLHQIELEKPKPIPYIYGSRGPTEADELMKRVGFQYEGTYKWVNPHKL

G6PD [5] = molecular target: T1, G6PD; test: G6PD enzymatic activity by LC-MS (6-pg production); format: biochemical; design: Partially truncated human G6PD (residues 28-515, Uniprot ID P11413); His6 with thrombin cleavage site (N, cleaved yes); made in house; host or cells: Escherichia coli BL21(DE3)pLysS; details: orthogonal LC-MS assay
Procedure: Aliquots of reaction mixture were collected at indicated time points and rapidly quenched by diluting (1:5) into methanol precooled on dry ice. The mixtures were centrifuged at 13,000 rcf for 20 minutes at 4° C., and the resulting supernatants were diluted (1:20) into 40:40:20 methanol/ acetonitrile/ water and analyzed by LC-MS.
Target sequence in this assay (P11413 28-515): as above

[6] = Normalized in vitro IC50, Table 1A, diaphorase-coupled biochemical assay, normalization to an intraplate control
[7] = Normalized in vitro IC50, Table 1, diaphorase-coupled biochemical assay, normalization to an intraplate control

Which 6-pg levels (G6PD [1]; 50 µM, 2 hours) does the source give for `OC[C@H]1O[C@@H](Oc2cc(O)cc(/C=C/c3ccc(O)cc3)c2)[C@H](O)[C@@H](O)[C@@H]1O` [polydatin] here?
The 6-pg levels was “failed to decrease”.

And the “NADPH active hydride labeling” value (G6PD [2]; 50 µM, 2 hours)?
The value was “failed to decrease”.

How did the “thermal stabilization of G6PD” value (G6PD [3]) turn out when `C[C@]12CC[C@H](O)CC1=CC[C@@H]1[C@@H]2CC[C@]2(C)C(=O)CC[C@@H]12` [DHEA, dehydroepiandrosterone] was run?
The value was “not”.

And the 6-pg level (G6PD [1]; HepG2 cells, 100 µM, 2 hours)?
The 6-pg level was “did not impact the 6-pg level”.

What about the “dose-dependent decrease in 6-pg levels” value (G6PD [1]; HepG2 cells) of the same compound?
Its value is “not”.

And the IC50 (G6PD [4]; IC50 (half-maximal inhibitory constant) against human G6PD, coupled enzymatic assay, recombinant human enzyme)?
Its IC50 is ~9.5 µM.

What about the “C16:0 labeling” value (G6PD [2]; 100 µM, 2 hours) of the same compound?
The value was “did not decrease”.

What about the “NADPH active hydride labeling” value (G6PD [2]; 100 µM, 2 hours) of the same compound?
The value was “did not decrease”.

What about the “dose-dependent decrease in 2H transfer from 1-2H-glucose to NADPH's active hydride” value (G6PD [2]) of the same compound?
Its value is “not”.

Which IC50 (G6PD [4]) does the source give for `C#CCOc1cc(C#N)cc(Nc2ncc3c(n2)CCCCC3=O)c1` [Compound 0062] here?
The IC50 was < 1 µM.

For `N#Cc1cc(Nc2ncc3c(n2)CCCCC3=O)cc(OCc2ccc(OC(F)(F)F)cc2)c1` [Compound 0077], which IC50 (G6PD [4]) is on record?
Its IC50 is 1 to 1000 µM.

`O=C1CCCCc2nc(Nc3ccc(I)cc3)ncc21` [Compound 0004] was tested. Which IC50 (G6PD [4]; [6]) did it give?
The IC50 was 1 to 1000 µM.

For `O=C1CCCc2nc(Nc3cccc(Br)c3)ncc21` [KG-0167], which IC50 (G6PD [4]; [7]) is on record?
The IC50 was 1 to 1000 µM.

`Cc1ccc(C(=O)c2cc(Cl)cc(Nc3ncc4c(n3)CCCCC4=O)c2)cc1` [Compound 0043] was tested. Which IC50 (G6PD [4]) did it give?
Its IC50 is > 1000 µM.

Which IC50 (G6PD [4]; [6]) does the source give for `O=C1CCCCc2nc(Nc3ccc(SC(F)(F)F)cc3)ncc21` [Compound 0009] here?
Its IC50 is 1 to 1000 µM.

With `N#Cc1cc(Nc2ncc3c(n2)CCCCC3=O)cc(OCc2ccccn2)c1` [Compound 0121] as the compound, how does the IC50 (G6PD [4]) read?
Its IC50 is < 1 µM.

With `O=C1CCCc2nc(Nc3ccc4nc[nH]c4c3)ncc21` [KG-0223-0] as the compound, how does the IC50 (G6PD [4]; [7]) read?
The IC50 was 1 to 1000 µM.

Which IC50 (G6PD [4]; [7]) does the source give for `O=C1CCCc2nc(Nc3ccc4occc4c3)ncc21` [KG-0228-0] here?
The IC50 was 1 to 1000 µM.

For `COC(=O)c1cccc(Nc2ncc3c(n2)CCCC3=O)c1` [KG-0064-0], which IC50 (G6PD [4]; [7]) is on record?
The IC50 was 1 to 1000 µM.

With `N#Cc1cc(Nc2ncc3c(n2)CCCCC3=O)cc(OCc2cccc3ccccc23)c1` [Compound 0079] as the compound, how does the IC50 (G6PD [4]) read?
The IC50 was < 1 µM.

Which IC50 (G6PD [4]; [7]) does the source give for `O=C1CCCc2nc(Nc3cccc(O)c3)ncc21` [KG-0186-0A] here?
The IC50 was < 1 µM.

With `Cc1csc(Nc2ncc3c(n2)CCCC3=O)n1` [KG-0219-0] as the compound, how does the IC50 (G6PD [4]) read?
Its IC50 is 1 to 1000 µM.

For `O=C1CCCc2nc(Nc3ccc4[nH]ncc4c3)ncc21` [KG-0232-0], which IC50 (G6PD [4]; [7]) is on record?
Its IC50 is < 1 µM.

For `CN(c1cccc(C#N)c1)c1ncc2c(n1)CCCC2=O` [neg-ctrl, 3-[methyl(5-oxo-5,6,7,8-tetrahydroquinazolin-2-yl)amino]benzonitrile], which “6-pg production by recombinant human G6PD” value (G6PD [5]) is on record?
The value was “did not”.

And the “dose-dependent decrease in 6-pg levels” value (G6PD [1]; HepG2 cells)?
Its value is “not”.

What about the “activity against G6PD” value (G6PD [4]; in vitro) of the same compound?
Its value is “lacked any activity against G6PD”.

And the “dose-dependent decrease in 2H transfer from 1-2H-glucose to NADPH's active hydride” value (G6PD [2])?
The value was “not”.

How did the IC50 (G6PD [4]; [6]) turn out when `CC(C)c1ccc(Nc2ncc3c(n2)CCCCC3=O)cc1` [Compound 0007] was run?
Its IC50 is 1 to 1000 µM.

`N#Cc1cc(Nc2ncc3c(n2)CCCCC3=O)cc(OCc2ccsc2)c1` [Compound 0049] was tested. Which IC50 (G6PD [4]) did it give?
Its IC50 is < 1 µM.

Source: US20230348401A1, “Inhibitors of Glucose-6-phosphate Dehydrogenase and Uses Thereof” (The Trustees of Princeton University, priority 2020, published 2023)
